Reference: PubChem BioAssay (NCI)
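Grown in 96-well plates, cells were treated for 48 hours with each compound at five concentrations. Insufficient inhibition: endpoint recorded as highest concentration tested. TGI denotes the concentration required for complete inhibition of growth.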

Assays:
Experiment in all cases: NCI anticancer screen, dose series, 48 h
RXF 393 renal = test system: RXF 393 renal
ACHN renal = test system: ACHN renal
OVCAR-4 ovarian = test system: OVCAR-4 ovarian
SR leukemia = test system: SR leukemia
HT29 colon = test system: HT29 colon
OVCAR-5 ovarian = test system: OVCAR-5 ovarian
U251 CNS = test system: U251 CNS
HOP-92 NSCLC = test system: HOP-92 NSCLC
RPMI-8226 leukemia = test system: RPMI-8226 leukemia
HS 578T breast = test system: HS 578T breast
M14 melanoma = test system: M14 melanoma
COLO 205 colon = test system: COLO 205 colon
NCI-H226 lung = test system: NCI-H226 lung
UACC-257 melanoma = test system: UACC-257 melanoma
MOLT-4 leukemia = test system: MOLT-4 leukemia
T-47D breast = test system: T-47D breast
SF-539 CNS = test system: SF-539 CNS
OVCAR-8 ovarian = test system: OVCAR-8 ovarian
786-0 renal = test system: 786-0 renal
UO-31 renal = test system: UO-31 renal
SW-620 colon = test system: SW-620 colon
MALME-3M melanoma = test system: MALME-3M melanoma
A549 NSCLC = test system: A549 NSCLC
NCI-H23 lung = test system: NCI-H23 lung
SK-MEL-5 melanoma = test system: SK-MEL-5 melanoma
SF-295 CNS = test system: SF-295 CNS
HCT-15 colon = test system: HCT-15 colon
UACC-62 melanoma = test system: UACC-62 melanoma
OVCAR-3 ovarian = test system: OVCAR-3 ovarian
CCRF-CEM leukemia = test system: CCRF-CEM leukemia
DU-145 prostate = test system: DU-145 prostate
MDA-MB-435 = test system: MDA-MB-435
TK-10 renal = test system: TK-10 renal
SN12C renal = test system: SN12C renal
NCI-H522 lung = test system: NCI-H522 lung
HCT-116 colon = test system: HCT-116 colon
HCC-2998 colon = test system: HCC-2998 colon
MDA-N = test system: MDA-N
A498 renal = test system: A498 renal
SK-MEL-28 melanoma = test system: SK-MEL-28 melanoma
MCF7 breast = test system: MCF7 breast
CAKI-1 renal = test system: CAKI-1 renal
HOP-62 NSCLC = test system: HOP-62 NSCLC
SK-MEL-2 melanoma = test system: SK-MEL-2 melanoma
PC-3 prostate = test system: PC-3 prostate
MDA-MB-231 breast = test system: MDA-MB-231 breast
NCI/ADR-RES ovarian = test system: NCI/ADR-RES ovarian
SK-OV-3 ovarian = test system: SK-OV-3 ovarian
K-562 leukemia = test system: K-562 leukemia
KM12 colon = test system: KM12 colon
SNB-19 CNS = test system: SNB-19 CNS
NCI-H460 lung = test system: NCI-H460 lung
EKVX NSCLC = test system: EKVX NSCLC
SF-268 CNS = test system: SF-268 CNS
IGROV1 ovarian = test system: IGROV1 ovarian
HL-60(TB) leukemia = test system: HL-60(TB) leukemia
LOX IMVI melanoma = test system: LOX IMVI melanoma
SNB-75 CNS = test system: SNB-75 CNS
BT-549 breast = test system: BT-549 breast

COc1ccc(CNC(=O)[C@H](Cc2ccc(O)cn2)NC(C)=O)cc1OC
TGI (RXF 393 renal): > 100 µM | TGI (ACHN renal): > 100 µM | TGI (OVCAR-4 ovarian): > 100 µM | TGI (SR leukemia): > 100 µM | TGI (HT29 colon): > 100 µM | TGI (OVCAR-5 ovarian): > 100 µM | TGI (U251 CNS): > 100 µM | TGI (HOP-92 NSCLC): > 100 µM | TGI (RPMI-8226 leukemia): > 100 µM | TGI (HS 578T breast): > 100 µM | TGI (M14 melanoma): > 100 µM | TGI (COLO 205 colon): > 100 µM | TGI (NCI-H226 lung): > 100 µM | TGI (UACC-257 melanoma): > 100 µM | TGI (MOLT-4 leukemia): > 100 µM | TGI (T-47D breast): > 100 µM | TGI (SF-539 CNS): > 100 µM | TGI (OVCAR-8 ovarian): > 100 µM | TGI (786-0 renal): > 100 µM | TGI (UO-31 renal): > 100 µM | TGI (SW-620 colon): > 100 µM | TGI (MALME-3M melanoma): > 100 µM | TGI (A549 NSCLC): > 100 µM | TGI (NCI-H23 lung): > 100 µM | TGI (SK-MEL-5 melanoma): > 100 µM | TGI (SF-295 CNS): > 100 µM | TGI (HCT-15 colon): > 100 µM | TGI (UACC-62 melanoma): > 100 µM | TGI (OVCAR-3 ovarian): > 100 µM | TGI (CCRF-CEM leukemia): > 100 µM | TGI (DU-145 prostate): > 100 µM | TGI (MDA-MB-435): > 100 µM | TGI (TK-10 renal): > 100 µM | TGI (SN12C renal): > 100 µM | TGI (NCI-H522 lung): > 100 µM | TGI (HCT-116 colon): > 100 µM | TGI (HCC-2998 colon): > 100 µM | TGI (MDA-N): > 100 µM | TGI (A498 renal): > 100 µM | TGI (SK-MEL-28 melanoma): > 100 µM | TGI (MCF7 breast): > 100 µM | TGI (CAKI-1 renal): > 100 µM | TGI (HOP-62 NSCLC): > 100 µM | TGI (SK-MEL-2 melanoma): > 100 µM | TGI (PC-3 prostate): > 100 µM | TGI (MDA-MB-231 breast): > 100 µM | TGI (NCI/ADR-RES ovarian): > 100 µM | TGI (SK-OV-3 ovarian): > 100 µM | TGI (K-562 leukemia): > 100 µM | TGI (KM12 colon): > 100 µM | TGI (SNB-19 CNS): > 100 µM | TGI (NCI-H460 lung): > 100 µM | TGI (EKVX NSCLC): > 100 µM | TGI (SF-268 CNS): > 100 µM | TGI (IGROV1 ovarian): > 100 µM | TGI (HL-60(TB) leukemia): > 100 µM | TGI (LOX IMVI melanoma): > 100 µM | TGI (SNB-75 CNS): > 100 µM | TGI (BT-549 breast): > 100 µM

CN(CCCN(C)Cc1ccc(Cl)c(Cl)c1)CCN1CCCC1
TGI (RXF 393 renal): 67.9 µM | TGI (ACHN renal): > 100 µM | TGI (OVCAR-4 ovarian): > 100 µM | TGI (SR leukemia): 31.9 µM | TGI (HT29 colon): 32.2 µM | TGI (OVCAR-5 ovarian): > 86.3 µM | TGI (U251 CNS): 47 µM | TGI (HOP-92 NSCLC): > 28.3 µM | TGI (RPMI-8226 leukemia): 17.5 µM | TGI (HS 578T breast): > 53.6 µM | TGI (M14 melanoma): 15.7 µM | TGI (COLO 205 colon): 33 µM | TGI (NCI-H226 lung): 55.6 µM | TGI (UACC-257 melanoma): 7.18 µM | TGI (MOLT-4 leukemia): 37.1 µM | TGI (T-47D breast): > 80.6 µM | TGI (SF-539 CNS): 45.1 µM | TGI (OVCAR-8 ovarian): > 100 µM | TGI (786-0 renal): 31.6 µM | TGI (UO-31 renal): 10 µM | TGI (SW-620 colon): > 100 µM | TGI (MALME-3M melanoma): 30.9 µM | TGI (A549 NSCLC): > 80.9 µM | TGI (NCI-H23 lung): > 100 µM | TGI (SK-MEL-5 melanoma): 19.5 µM | TGI (SF-295 CNS): 53.9 µM | TGI (HCT-15 colon): > 88.4 µM | TGI (UACC-62 melanoma): 3.67 µM | TGI (OVCAR-3 ovarian): > 100 µM | TGI (CCRF-CEM leukemia): 24.6 µM | TGI (DU-145 prostate): > 100 µM | TGI (MDA-MB-435): 11.7 µM | TGI (TK-10 renal): > 82.7 µM | TGI (SN12C renal): > 100 µM | TGI (NCI-H522 lung): 37.1 µM | TGI (HCT-116 colon): > 54.2 µM | TGI (HCC-2998 colon): 11.8 µM | TGI (MDA-N): 15.8 µM | TGI (A498 renal): 28.2 µM | TGI (SK-MEL-28 melanoma): 4.6 µM | TGI (MCF7 breast): 43.6 µM | TGI (CAKI-1 renal): > 93.5 µM | TGI (HOP-62 NSCLC): 98.2 µM | TGI (SK-MEL-2 melanoma): 26.4 µM | TGI (PC-3 prostate): > 100 µM | TGI (MDA-MB-231 breast): 37.3 µM | TGI (NCI/ADR-RES ovarian): > 100 µM | TGI (SK-OV-3 ovarian): > 100 µM | TGI (K-562 leukemia): 15 µM | TGI (KM12 colon): > 100 µM | TGI (SNB-19 CNS): > 100 µM | TGI (NCI-H460 lung): 70.5 µM | TGI (EKVX NSCLC): > 100 µM | TGI (SF-268 CNS): > 93.5 µM | TGI (IGROV1 ovarian): > 62.8 µM | TGI (HL-60(TB) leukemia): > 100 µM | TGI (LOX IMVI melanoma): 41.2 µM | TGI (SNB-75 CNS): 81.7 µM | TGI (BT-549 breast): > 100 µM
